24 molecules from patent US9533977B2, “Oxazolidinone derivative as CETP inhibitor, its preparation method, and pharmaceutical composition comprising the same” (DONG-A ST CO., LTD., priority 2013, dated 2017) can be followed below.

For the test, the target named is T1, CETP (Homo sapiens, UniProt P11597).
T1 construct: from tissue; host or cells: human plasma from healthy men
T1 sequence (P11597 18-493): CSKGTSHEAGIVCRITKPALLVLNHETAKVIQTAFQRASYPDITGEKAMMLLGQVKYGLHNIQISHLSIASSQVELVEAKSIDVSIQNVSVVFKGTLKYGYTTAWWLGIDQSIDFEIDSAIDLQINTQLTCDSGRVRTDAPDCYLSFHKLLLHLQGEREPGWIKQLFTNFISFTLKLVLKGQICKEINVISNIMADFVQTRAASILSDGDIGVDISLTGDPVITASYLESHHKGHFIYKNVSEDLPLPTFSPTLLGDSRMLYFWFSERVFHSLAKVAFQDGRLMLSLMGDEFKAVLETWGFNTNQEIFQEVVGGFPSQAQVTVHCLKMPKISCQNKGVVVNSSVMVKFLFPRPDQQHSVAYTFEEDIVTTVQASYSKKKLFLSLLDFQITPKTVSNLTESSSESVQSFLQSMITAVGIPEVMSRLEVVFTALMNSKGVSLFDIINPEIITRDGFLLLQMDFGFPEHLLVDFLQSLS
In words: Inhibitory activity against CETP in human plasma (Roar CETP activity kit, fluorescence). Format: biochemical. The conditions noted are these: plasma from healthy men diluted 1:10 in assay buffer, 37° C., 3 hrs, fluorescence 465/535 nm; read-out: IC50, Inhibition of CETP Activity in Human Plasma. Here is the method:
A CETP activity kit (#RB-CETP) was purchased from Roar […], Inc. A donor and an acceptor (each, 4 ul), a 10× assay buffer (177 ul), and each of dilutions of test compounds in dimethylsulfoxide (DMSO, Sigma-Aldrich) (0.01 nM˜10000 nM) were added to each well of black round-bottom 96-well plates (Corning #3792). Plasma samples from healthy men were diluted in the assay buffer (1:10=plasma:assay buffer), and added to each well. The plates were sealed with a sealing film (Sigma-Aldrich, #Z369659), and incubated in a 37° C. incubator microplate shaker (#SLST-3, Seolin Bio) for 3 hrs. After removal of the sealing film, fluorescence was read on Spectra Max Gemini EM (Molecular devices) with an excitation wavelength of 465 nm and an emission wavelength of 535 nm. Measurements were calculated according to the following formula. Calculated value=(Fluorescence Intensity with both compound and plasma−Fluorescence Intensity with compound but without plasma)/(Fluorescence Intensity with plasma but without compound−Fluorescence Intensity with neither compound nor plasma)
From the calculated value, a sigmoidal curve (y=start+(end-start)x^n/k^n+x^n) was drawn using Origin Software (OriginLab Corporation, ver. 8.0724) to obtain IC50 values.

For `CCCCN(c1ncc(C(F)(F)F)cc1CN1C(=O)O[C@H](c2cc(C(F)(F)F)cc(C(F)(F)F)c2)[C@@H]1C)C1CCOCC1` [Example 9, (4S,5R)-5-[3,5-bis(trifluoromethyl)phenyl]-4-methyl-3-({[2-(butyl)(tetrahydro-2H-pyran-4-yl)amino]-5-(trifluoromethyl)pyridin-3-yl}methyl)-oxazolidin-2-one], the 50% inhibitory concentration (IC50) (commonly the concentration that inhibits the measured activity by half) was found to be 68 nM.

Regarding `C[C@H]1C(c2cc(C(F)(F)F)cc(C(F)(F)F)c2)OC(=O)N1Cc1nc(C2CCC2)cnc1N(C)C[C@H]1CC[C@H](CC(=O)O)CC1` (stereo partly drawn) [Example 128], the IC50 worked out at 23.9 nM.

For the molecule `CCN(c1ncc(-c2cccs2)cc1CN1C(=O)O[C@H](c2cc(C(F)(F)F)cc(C(F)(F)F)c2)[C@@H]1C)C1CCCCC1` [Example 80, (4S,5R)-5-[3,5-bis(trifluoromethyl)phenyl]-4-methyl-3-({[2-(ethyl)(cyclohexyl)amino]-5-(thiophen-2-yl)pyridin-3-yl}methyl)-oxazolidin-2-one], the IC50 was 22 nM.

Regarding `CCN(c1ncc(C(F)(F)F)cc1CN1C(=O)O[C@H](c2cc(C(F)(F)F)cc(C(F)(F)F)c2)[C@@H]1C)C1CC[S+]([O-])CC1` (stereo partly drawn) [Example 26, (4S,5R)-5-[3,5-bis(trifluoromethyl)phenyl]-4-methyl-3-({[2-(ethyl)(1-oxidotetrahydro-2H-thiopyran-4-yl)amino]-5-(trifluoromethyl)pyridin-3-yl}methyl)-oxazolidin-2-one], the IC50 worked out at 100 nM.

Turning to `CCN(CC1CCC(CC(=O)O)CC1)c1ncc(-c2nccs2)nc1CN1C(=O)OC(c2cc(C(F)(F)F)cc(C(F)(F)F)c2)C1C` [Example 112, trans-4-({[3-({(4S,5S)-5-[3,5-bis(trifluoromethyl)phenyl]-4-methyl-2-oxazolidin-3-yl}methyl)-5-(thiazol-2-yl)pyrazin-2-yl]{[N-(ethyl)aminomethyl]cyclohexyl)}acetic acid], the half-inhibitory concentration (IC50) was determined as 37.4 nM.

`CCN(c1ncc(-c2cccc(F)c2)cc1CN1C(=O)O[C@H](c2cc(C(F)(F)F)cc(C(F)(F)F)c2)[C@@H]1C)C1CCOCC1` [Example 47, (4S,5R)-5-[3,5-bis(trifluoromethyl)phenyl]-4-methyl-3-({[2-(ethyl)(tetrahydro-2H-pyran-4-yl)amino]-5-(3-fluorophenyl)pyridin-3-yl}methyl)-oxazolidin-2-one]: the IC50 was 45 nM.

As for `C[C@H]1[C@@H](c2cc(C(F)(F)F)cc(C(F)(F)F)c2)OC(=O)N1Cc1cc(C(F)(F)F)cnc1N(C1CCOCC1)C1CC1` [Example 10], the IC50 came to 60 nM.

As for `CCN(c1ncc(C(F)(F)F)cc1CN1C(=O)O[C@H](c2cc(C(F)(F)F)cc(C(F)(F)F)c2)[C@@H]1C)C1CCN(S(C)(=O)=O)CC1` [Example 32, (4S,5R)-5-[3,5-bis(trifluoromethyl)phenyl]-4-methyl-3-({[2-(ethyl)(1-methanesulfonylpiperidin-4-yl)amino]-5-trifluoromethylpyridin-3-yl}methyl)-oxazolidin-2-one], the concentration for half-maximal inhibition (IC50) is 410 nM.

For `Cc1noc(C)c1-c1cnc(N2CCCC(C(F)(F)F)C2)c(CN2C(=O)O[C@@H](c3cc(C(F)(F)F)cc(C(F)(F)F)c3)[C@@H]2C)n1` (stereo partly drawn) [Example 100, (4S,5S)-5-[3,5-bis(trifluoromethyl)phenyl]-3-{[6-(3,5-dimethylisoxazol-4-yl)-3-[3-(trifluoromethyl)piperidin-1-yl]pyrazin-2-yl]methyl}-4-methyloxazolidin-2-one], the IC50 amounted to 15.6 nM.

Turning to `CCN(c1ncc(C(F)(F)F)cc1CN1C(=O)O[C@H](c2cc(C(F)(F)F)cc(C(F)(F)F)c2)[C@@H]1C)C1CCC2(CC1)OCCO2` [Example 21, (4S,5R)-5-[3,5-bis(trifluoromethyl)phenyl]-4-methyl-3-({[2-(ethyl)(1,4-dioxaspiro[4.5]decan-8-yl)amino]-5-trifluoromethylpyridin-3-yl}methyl)-oxazolidin-2-one], the 50% inhibitory concentration (IC50) came to 114 nM.

Consider `Cc1noc(C)c1-c1cnc(N2CCCCC2)c(CN2C(=O)O[C@@H](c3cc(C(F)(F)F)cc(C(F)(F)F)c3)[C@@H]2C)n1` [Example 98, (4S,5S)-5-[3,5-bis(trifluoromethyl)phenyl]-3-{[6-(3,5-dimethylisoxazol-4-yl)-3-(piperidin-1-yl)pyrazin-2-yl)methyl}-4-methyloxazolidin-2-one], for which the IC50 was found to be 2.61 nM.

Consider `CCN(c1ncc(OS(C)(=O)=O)cc1CN1C(=O)O[C@H](c2cc(C(F)(F)F)cc(C(F)(F)F)c2)[C@@H]1C)C1CCCCC1` [Example 55, 5-{[(4S,5R)-5-[3,5-bis(trifluoromethyl)phenyl]-4-methyl-2-oxo-oxazolidin-3-yl]methyl}-6-[(cyclohexyl)(ethyl)amino]-pyridin-3-yl methanesulfonate], for which the half-inhibitory concentration (IC50) was 11.1 nM.

Consider `C[C@H]1[C@@H](c2cc(C(F)(F)F)cc(C(F)(F)F)c2)OC(=O)N1Cc1cc(C(F)(F)F)cnc1N(C)C1CCCOCC1` (stereo partly drawn) [Example 20, (4S,5R)-5-[3,5-bis(trifluoromethyl)phenyl]-4-methyl-3-({[2-(methyl)(oxepen-4-yl)amino]-5-(trifluoromethyl)pyridin-3-yl}methyl)-oxazolidin-2-one], for which the 50% inhibitory concentration (IC50) is 59 nM.

Consider `CCN(C[C@H]1CC[C@H](CCO)CC1)c1ncc(-c2c(C)noc2C)nc1CN1C(=O)OC(c2cc(C(F)(F)F)cc(C(F)(F)F)c2)[C@@H]1C` (stereo partly drawn) [Example 130], for which the IC50 is 8.86 nM.

`Cc1noc(C)c1-c1cnc(N(C)C[C@H]2CC[C@H](CC(=O)O)CC2)c(CN2C(=O)OC(c3cc(C(F)(F)F)cc(C(F)(F)F)c3)[C@@H]2C)n1` (stereo partly drawn) [Example 126]: the half-inhibitory concentration (IC50) stood at 17 nM.

In the case of `CCN(C[C@H]1CC[C@H](CC(=O)O)CC1)c1ncc(-c2sccc2OC)nc1CN1C(=O)OC(c2cc(C(F)(F)F)cc(C(F)(F)F)c2)[C@@H]1C` (stereo partly drawn) [Example 109], the concentration for half-maximal inhibition (IC50) came out at 3.84 nM.

Turning to “(4S,5R)-5-[3,5-bis(trifluoromethyl)phenyl]-4-methyl-3-({[2-(methyl)(cyclohexyl)amino]-5-(3,5-dimethyl-isoxazol-4-yl)pyrazin-3-yl}methyl)-oxazolidin-2-one [Example 95]”, the IC50 came out at 3.8 nM.

`CCN(C[C@H]1CC[C@H](CC(=O)O)CC1)c1ncc(-c2cccn2C)nc1CN1C(=O)OC(c2cc(C(F)(F)F)cc(C(F)(F)F)c2)[C@@H]1C` (stereo partly drawn) [Example 104]: the 50% inhibitory concentration (IC50) came out at 3.8 nM.

Consider `Cc1noc(C)c1-c1cnc(N2CC(C)OC(C)C2)c(CN2C(=O)O[C@@H](c3cc(C(F)(F)F)cc(C(F)(F)F)c3)[C@@H]2C)n1` (stereo partly drawn) [Example 99, (4S,5S)-5-[3,5-bis(trifluoromethyl)phenyl]-3-{[6-(3,5-dimethylisoxazol-4-yl)-3-(2,6-dimethylmorpholino)pyrazin-2-yl]methyl}-4-methyloxazolidin-2-one], for which the IC50 worked out at 83.1 nM.

Take `CCCN(C[C@H]1CC[C@H](CC(=O)O)CC1)c1ncc(-c2c(C)noc2C)nc1CN1C(=O)OC(c2cc(C(F)(F)F)cc(C(F)(F)F)c2)[C@@H]1C` (stereo partly drawn) [Example 123]: the IC50 turned out to be 7.19 nM.

Turning to `CCN(c1ncc(C(F)(F)F)cc1CN1C(=O)O[C@H](c2cc(C(F)(F)F)cc(C(F)(F)F)c2)[C@@H]1C)C1CCCOC1` (stereo partly drawn) [Example 15, (4S,5R)-5-[3,5-bis(trifluoromethyl)phenyl]-4-methyl-3-({[2-ethyl(tetrahydro-2H-pyran-3-yl)amino]-5-(trifluoromethyl)pyridin-3-yl}methyl)-oxazolidin-2-one], the IC50 was determined as 10 nM.

For `CCCN(c1ncc(C(F)(F)F)cc1CN1C(=O)O[C@H](c2cc(C(F)(F)F)cc(C(F)(F)F)c2)[C@@H]1C)C1CCOCC1` [Example 8, (4S,5R)-5-[3,5-bis(trifluoromethyl)phenyl]-4-methyl-3-({[2-(propyl)(tetrahydro-2H-pyran-4-yl)amino]-5-(trifluoromethyl)pyridin-3-yl}methyl)-oxazolidin-2-one], the concentration for half-maximal inhibition (IC50) was found to be 14 nM.

On to `CCN(c1ncc(C(F)(F)F)cc1CN1C(=O)O[C@H](c2cc(C(F)(F)F)cc(C(F)(F)F)c2)[C@@H]1C)C1CCC(=O)CC1` [Example 22, (4S,5R)-5-[3,5-bis(trifluoromethyl)phenyl]-4-methyl-3-({[2-(ethyl)(4-oxocyclohexyl)amino]-5-(trifluoromethyl)pyridin-3-yl}methyl)-oxazolidin-2-one], for which the IC50 is 10 nM.

Regarding `CCN(c1ncc(C(F)(F)F)cc1CN1C(=O)O[C@H](c2cc(C(F)(F)F)cc(C(F)(F)F)c2)[C@@H]1C)C1CCN(C(=O)OC(C)(C)C)CC1` [Example 27, t-butyl 4-{[3-({(4S,5R)-5-[3,5-bis(trifluoromethyl)phenyl]-4-methyl-2-oxo-oxazolidin-3-yl}methyl)-5-(trifluoromethyl)pyridin-2-yl](ethyl)amino}piperidine-1-carboxylate], the IC50 stood at 430 nM.
